Assay results from ChEMBL document CHEMBL2203152, “Systematic in vivo screening of a series of 1-propyl-4-arylpiperidines against dopaminergic and serotonergic properties in rat brain: a scaffold-jumping approach” (J Med Chem, 2012).
Calls of active or inactive are those of the source. The calls are words filed in the database; no cut-off is given here.

How the values were obtained:
Rattus norvegicus [1] = test: Increase in DOPAC level in Sprague-Dawley rat striatum at 25 umol/kg, sc by HPLC analysis relative to saline-treated control; type: functional
Rattus norvegicus [2] = test: Reduction in spontaneous locomotor activity in Sprague-Dawley rat at 25 umol/kg, sc measured after 15 to 60 mins relative to saline-treated control; type: functional; set-up: scale not given: the % may be the effect or the level left
Rattus norvegicus [3] = test: Decrease in 5-HIAA level in Sprague-Dawley rat striatum at 25 umol/kg, sc by HPLC analysis relative to saline-treated control; type: functional; set-up: scale not given: the % may be the effect or the level left
Rattus norvegicus [4] = test: Increase in DOPAC level in sc dosed Sprague-Dawley rat striatum by HPLC analysis; type: functional
Rattus norvegicus [5] = test: Reduction in spontaneous locomotor activity in Sprague-Dawley rat at 5.8 umol/kg, sc measured after 15 to 60 mins relative to saline-treated control; type: functional; set-up: scale not given: the % may be the effect or the level left
Rattus norvegicus [6] = test: Increase in DOPAC level in Sprague-Dawley rat striatum at 5.8 umol/kg, sc by HPLC analysis relative to saline-treated control; type: functional
Rattus norvegicus [7] = test: Decrease in 5-HIAA level in Sprague-Dawley rat striatum at 5.8 umol/kg, sc by HPLC analysis relative to saline-treated control; type: functional; set-up: scale not given: the % may be the effect or the level left
Rattus norvegicus [8] = test: Increase in DOPAC level in Sprague-Dawley rat striatum at 2.4 umol/kg, sc by HPLC analysis relative to saline-treated control; type: functional
Rattus norvegicus [9] = test: Decrease in 5-HIAA level in Sprague-Dawley rat striatum at 2.4 umol/kg, sc by HPLC analysis relative to saline-treated control; type: functional; set-up: scale not given: the % may be the effect or the level left
Rattus norvegicus [10] = test: Reduction in spontaneous locomotor activity in Sprague-Dawley rat at 2.4 umol/kg, sc measured after 15 to 60 mins relative to saline-treated control; type: functional; set-up: scale not given: the % may be the effect or the level left
Rattus norvegicus [11] = test: Inhibition of d-amphetamine-induced hyperlocomotion in sc dosed Sprague-Dawley rat sc measured after 15 to 60 mins relative to saline-treated control; type: functional
[12] = molecular target: Sodium-dependent serotonin transporter (Homo sapiens, UniProt P31645); test: Displacement of [3H]imipramine from human SERT expressed in CHO cells by competition binding assay; type: cell-based; details: read-out: Ki(app)
Rattus norvegicus [13] = test: Decrease in 5-HIAA level in Sprague-Dawley rat striatum at 33 umol/kg, sc by HPLC analysis relative to saline-treated control; type: functional; set-up: scale not given: the % may be the effect or the level left
Homo sapiens = species: Homo sapiens; test: Selectivity ratio of Ki(app) for human low affinity Dopamine D2S receptor to Ki(app) for human high affinity Dopamine D2S receptor
D(3) dopamine receptor = D(3) dopamine receptor (Homo sapiens, UniProt P35462); test: Displacement of [3H]7-OH-DPAT from human dopamine D3 receptor by CEREP assay; details: read-out: Ki(app)
[14] = molecular target: 5-hydroxytryptamine receptor 2A (Homo sapiens, UniProt P28223); test: Displacement of [3H]ketanserin from human 5-HT2A by CEREP assay; details: read-out: Ki(app)
[15] = molecular target: T1, 5-hydroxytryptamine receptor 1A (Homo sapiens, UniProt P08908); test: Displacement of [3H]8- OH-DPAT from human 5-HT1A by CEREP assay; details: read-out: Ki(app)
T1 sequence (P08908 whole entry): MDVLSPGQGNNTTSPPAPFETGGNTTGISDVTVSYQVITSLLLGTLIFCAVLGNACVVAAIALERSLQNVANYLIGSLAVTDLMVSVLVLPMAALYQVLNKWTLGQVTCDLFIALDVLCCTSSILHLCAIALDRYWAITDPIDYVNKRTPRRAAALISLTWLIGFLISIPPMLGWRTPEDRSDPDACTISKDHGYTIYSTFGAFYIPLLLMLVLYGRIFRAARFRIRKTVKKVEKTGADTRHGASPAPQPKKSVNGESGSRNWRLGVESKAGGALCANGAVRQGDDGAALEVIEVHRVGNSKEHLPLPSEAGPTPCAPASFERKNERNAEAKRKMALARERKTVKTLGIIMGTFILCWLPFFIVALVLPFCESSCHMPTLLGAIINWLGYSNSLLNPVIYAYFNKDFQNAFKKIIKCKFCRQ

D(2) dopamine receptor [16] = molecular target: T2, D(2) dopamine receptor (Homo sapiens, UniProt P14416); test: Displacement of [3H]7-OH-DPAT from human high affinity Dopamine D2S receptor by competition binding assay
D(2) dopamine receptor [17] = molecular target: T2, D(2) dopamine receptor; test: Displacement of [3H]methylspiperone from human low affinity Dopamine D2S receptor by competition binding assay
Rattus norvegicus [18] = test: Inhibition of MK-801-induced hyperlocomotion in sc dosed Sprague-Dawley rat sc measured after 15 to 60 mins relative to saline-treated control; type: functional
Rattus norvegicus [19] = test: Increase in DOPAC level in Sprague-Dawley rat striatum at 33 umol/kg, sc by HPLC analysis relative to saline-treated control; type: functional
[20] = molecular target: T3, D(4) dopamine receptor (Homo sapiens) (UniProt P21917); test: Displacement of [3H]methylspiperone from human dopamine D4 receptor at 1 uM by CEREP assay
T3 sequence (whole entry): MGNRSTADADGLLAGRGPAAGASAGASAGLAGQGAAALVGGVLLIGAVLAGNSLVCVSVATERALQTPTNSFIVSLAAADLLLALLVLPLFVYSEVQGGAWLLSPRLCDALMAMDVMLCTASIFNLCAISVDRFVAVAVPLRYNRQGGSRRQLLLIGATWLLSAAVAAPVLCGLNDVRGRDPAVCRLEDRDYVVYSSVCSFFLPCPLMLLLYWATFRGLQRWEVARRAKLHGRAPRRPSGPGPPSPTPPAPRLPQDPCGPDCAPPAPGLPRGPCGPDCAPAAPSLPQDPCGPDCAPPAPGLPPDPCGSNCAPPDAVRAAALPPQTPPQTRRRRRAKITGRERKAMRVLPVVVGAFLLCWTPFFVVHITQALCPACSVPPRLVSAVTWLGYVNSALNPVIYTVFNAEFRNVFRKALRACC

[21] = molecular target: T4, Alpha-2A adrenergic receptor (Homo sapiens, UniProt P08913); test: Displacement of [3H]UK 14.304 from human adrenergic alpha2A receptor; details: read-out: Ki(app)
T4 sequence (P08913 whole entry): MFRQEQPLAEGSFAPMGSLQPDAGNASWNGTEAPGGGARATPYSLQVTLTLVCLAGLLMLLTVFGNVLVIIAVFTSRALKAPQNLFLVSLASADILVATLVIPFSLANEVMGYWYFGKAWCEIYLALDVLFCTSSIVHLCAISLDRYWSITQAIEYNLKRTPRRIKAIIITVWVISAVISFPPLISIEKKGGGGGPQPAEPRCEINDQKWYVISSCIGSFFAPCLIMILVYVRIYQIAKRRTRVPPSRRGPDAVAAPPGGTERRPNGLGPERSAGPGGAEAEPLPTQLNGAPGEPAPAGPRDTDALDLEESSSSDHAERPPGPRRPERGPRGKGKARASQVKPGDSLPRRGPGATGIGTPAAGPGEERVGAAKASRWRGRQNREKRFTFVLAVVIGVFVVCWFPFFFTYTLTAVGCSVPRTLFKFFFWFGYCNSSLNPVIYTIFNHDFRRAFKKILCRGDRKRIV

Rattus norvegicus [22] = test: Reduction in spontaneous locomotor activity in Sprague-Dawley rat at 33 umol/kg, sc measured after 15 to 60 mins relative to saline-treated control; type: functional; set-up: scale not given: the % may be the effect or the level left
[23] = molecular target: Sodium-dependent dopamine transporter (Homo sapiens) (UniProt Q01959); test: Displacement of [3H]BTCP from human DAT at 1 uM by CEREP assay
[24] = molecular target: 5-hydroxytryptamine receptor 6 (Homo sapiens, UniProt P50406); test: Displacement of [3H]LSD from human 5-HT6 receptor
[25] = molecular target: T5, Amine oxidase [flavin-containing] A (Rattus norvegicus, UniProt P21396); test: Displacement of [3H]Ro 41-1049 from MAO-A in rat cerebral cortex by competition binding assay; type: tissue-based
T5 sequence (P21396 whole entry): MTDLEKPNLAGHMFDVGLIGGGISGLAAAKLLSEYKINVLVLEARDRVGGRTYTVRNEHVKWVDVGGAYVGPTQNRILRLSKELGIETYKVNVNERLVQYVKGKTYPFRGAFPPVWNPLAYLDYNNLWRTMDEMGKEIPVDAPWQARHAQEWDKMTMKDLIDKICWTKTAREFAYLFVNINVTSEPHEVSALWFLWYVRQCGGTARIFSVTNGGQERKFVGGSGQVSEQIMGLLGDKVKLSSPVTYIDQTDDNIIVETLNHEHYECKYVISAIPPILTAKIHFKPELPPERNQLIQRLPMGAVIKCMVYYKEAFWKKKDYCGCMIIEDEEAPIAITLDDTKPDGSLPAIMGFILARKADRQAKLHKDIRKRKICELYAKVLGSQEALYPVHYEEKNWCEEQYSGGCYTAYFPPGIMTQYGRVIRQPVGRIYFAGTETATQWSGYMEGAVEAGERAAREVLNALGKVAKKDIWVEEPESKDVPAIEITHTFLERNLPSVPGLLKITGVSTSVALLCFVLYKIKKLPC

Rattus norvegicus [26] = test: Decrease in 5-HIAA level in Sprague-Dawley rat striatum at 6.4 umol/kg, sc by HPLC analysis relative to saline-treated control; type: functional; set-up: scale not given: the % may be the effect or the level left
Rattus norvegicus [27] = test: Increase in DOPAC level in Sprague-Dawley rat striatum at 6.4 umol/kg, sc by HPLC analysis relative to saline-treated control; type: functional
Rattus norvegicus [28] = test: Reduction in spontaneous locomotor activity in Sprague-Dawley rat at 6.4 umol/kg, sc measured after 15 to 60 mins relative to saline-treated control; type: functional; set-up: scale not given: the % may be the effect or the level left
Rattus norvegicus [29] = test: Reduction in spontaneous locomotor activity in Sprague-Dawley rat at 37 umol/kg, sc measured after 15 to 60 mins relative to saline-treated control; type: functional; set-up: scale not given: the % may be the effect or the level left
Rattus norvegicus [30] = test: Increase in DOPAC level in Sprague-Dawley rat striatum at 37 umol/kg, sc by HPLC analysis relative to saline-treated control; type: functional
Rattus norvegicus [31] = test: Decrease in 5-HIAA level in Sprague-Dawley rat striatum at 37 umol/kg, sc by HPLC analysis relative to saline-treated control; type: functional; set-up: scale not given: the % may be the effect or the level left

T2 sequence (P14416 whole entry): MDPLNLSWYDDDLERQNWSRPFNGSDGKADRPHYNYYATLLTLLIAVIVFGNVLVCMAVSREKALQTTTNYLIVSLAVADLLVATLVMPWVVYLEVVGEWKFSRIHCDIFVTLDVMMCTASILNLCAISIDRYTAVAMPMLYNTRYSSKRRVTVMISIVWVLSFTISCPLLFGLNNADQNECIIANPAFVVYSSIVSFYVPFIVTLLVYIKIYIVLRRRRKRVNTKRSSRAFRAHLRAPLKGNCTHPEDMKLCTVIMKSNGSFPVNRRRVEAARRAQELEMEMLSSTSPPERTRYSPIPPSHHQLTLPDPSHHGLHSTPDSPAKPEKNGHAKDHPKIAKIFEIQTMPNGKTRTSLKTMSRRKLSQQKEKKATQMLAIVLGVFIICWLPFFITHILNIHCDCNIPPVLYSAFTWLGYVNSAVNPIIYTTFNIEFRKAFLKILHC
Sequence of D(3) dopamine receptor (P35462 whole entry): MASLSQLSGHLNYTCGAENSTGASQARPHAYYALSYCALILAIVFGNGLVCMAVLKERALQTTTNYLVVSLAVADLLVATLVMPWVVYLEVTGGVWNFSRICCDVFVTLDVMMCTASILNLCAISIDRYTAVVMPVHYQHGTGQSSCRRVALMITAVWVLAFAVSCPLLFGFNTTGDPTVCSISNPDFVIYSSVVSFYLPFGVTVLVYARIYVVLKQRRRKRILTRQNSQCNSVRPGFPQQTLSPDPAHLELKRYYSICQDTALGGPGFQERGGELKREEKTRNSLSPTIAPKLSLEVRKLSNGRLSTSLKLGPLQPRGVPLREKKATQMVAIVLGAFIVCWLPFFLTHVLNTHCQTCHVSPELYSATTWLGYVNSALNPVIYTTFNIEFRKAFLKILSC
Sequence of Sodium-dependent dopamine transporter (Homo sapiens) (Q01959 whole entry): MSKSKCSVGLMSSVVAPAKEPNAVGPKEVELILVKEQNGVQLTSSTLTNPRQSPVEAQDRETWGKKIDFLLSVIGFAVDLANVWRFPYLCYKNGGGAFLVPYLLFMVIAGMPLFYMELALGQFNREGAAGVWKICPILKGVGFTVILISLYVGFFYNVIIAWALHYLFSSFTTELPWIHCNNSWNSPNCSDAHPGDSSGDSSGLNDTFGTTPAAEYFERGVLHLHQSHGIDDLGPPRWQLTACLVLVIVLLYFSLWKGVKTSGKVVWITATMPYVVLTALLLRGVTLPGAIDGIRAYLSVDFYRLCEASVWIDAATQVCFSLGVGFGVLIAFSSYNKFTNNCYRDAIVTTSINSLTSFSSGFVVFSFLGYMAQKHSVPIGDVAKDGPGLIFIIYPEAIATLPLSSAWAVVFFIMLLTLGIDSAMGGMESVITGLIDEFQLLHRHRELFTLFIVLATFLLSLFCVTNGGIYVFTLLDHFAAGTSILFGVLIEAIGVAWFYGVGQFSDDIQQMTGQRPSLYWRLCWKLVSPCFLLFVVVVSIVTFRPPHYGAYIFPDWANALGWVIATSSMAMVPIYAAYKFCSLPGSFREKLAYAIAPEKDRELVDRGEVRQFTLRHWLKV
Sequence of 5-hydroxytryptamine receptor 2A (P28223 whole entry): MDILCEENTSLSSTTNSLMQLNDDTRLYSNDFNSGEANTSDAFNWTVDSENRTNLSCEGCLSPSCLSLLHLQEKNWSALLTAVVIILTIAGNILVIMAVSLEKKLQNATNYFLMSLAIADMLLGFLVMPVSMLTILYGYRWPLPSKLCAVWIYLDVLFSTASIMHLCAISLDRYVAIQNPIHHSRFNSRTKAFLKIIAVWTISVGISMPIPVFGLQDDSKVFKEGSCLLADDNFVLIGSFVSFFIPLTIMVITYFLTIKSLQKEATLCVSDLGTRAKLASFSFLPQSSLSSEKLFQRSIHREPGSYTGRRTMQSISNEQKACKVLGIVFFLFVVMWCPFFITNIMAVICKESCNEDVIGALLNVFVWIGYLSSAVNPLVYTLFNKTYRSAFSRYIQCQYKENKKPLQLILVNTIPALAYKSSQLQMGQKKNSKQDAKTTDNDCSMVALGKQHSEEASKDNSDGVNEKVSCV
Sequence of 5-hydroxytryptamine receptor 6 (P50406 whole entry): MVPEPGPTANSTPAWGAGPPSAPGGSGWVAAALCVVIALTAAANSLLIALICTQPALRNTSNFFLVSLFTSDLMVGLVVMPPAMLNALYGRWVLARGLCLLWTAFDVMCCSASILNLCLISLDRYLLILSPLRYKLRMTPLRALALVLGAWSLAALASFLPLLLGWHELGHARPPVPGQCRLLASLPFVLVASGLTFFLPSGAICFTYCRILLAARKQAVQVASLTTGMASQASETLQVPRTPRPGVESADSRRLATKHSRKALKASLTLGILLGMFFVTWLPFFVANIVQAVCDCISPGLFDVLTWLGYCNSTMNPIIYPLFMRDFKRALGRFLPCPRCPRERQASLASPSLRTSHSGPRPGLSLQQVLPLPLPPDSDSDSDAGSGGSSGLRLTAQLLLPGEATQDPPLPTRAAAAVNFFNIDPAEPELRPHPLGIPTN
Sequence of Sodium-dependent serotonin transporter (P31645 whole entry): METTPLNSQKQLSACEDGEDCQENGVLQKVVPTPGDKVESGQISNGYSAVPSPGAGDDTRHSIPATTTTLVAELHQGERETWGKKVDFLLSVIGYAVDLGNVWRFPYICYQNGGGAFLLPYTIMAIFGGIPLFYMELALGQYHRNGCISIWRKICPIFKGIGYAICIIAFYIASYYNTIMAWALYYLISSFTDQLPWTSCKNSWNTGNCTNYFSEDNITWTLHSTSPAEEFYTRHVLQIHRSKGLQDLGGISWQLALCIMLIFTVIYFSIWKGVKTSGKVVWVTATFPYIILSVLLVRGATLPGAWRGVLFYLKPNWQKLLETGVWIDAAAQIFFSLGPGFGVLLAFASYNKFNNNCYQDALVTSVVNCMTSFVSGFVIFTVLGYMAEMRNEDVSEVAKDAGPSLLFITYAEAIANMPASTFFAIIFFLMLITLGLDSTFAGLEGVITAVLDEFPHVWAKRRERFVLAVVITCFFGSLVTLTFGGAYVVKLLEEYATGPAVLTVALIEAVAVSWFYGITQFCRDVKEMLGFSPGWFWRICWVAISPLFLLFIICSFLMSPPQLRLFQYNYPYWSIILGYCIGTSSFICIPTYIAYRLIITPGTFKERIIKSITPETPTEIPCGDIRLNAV

## CN(C)CCCC1(c2ccc(F)cc2)OCc2cc(C#N)ccc21 (configuration not stated) [CITALOPRAM]
Rattus norvegicus [1]
  Activity: 101%
Rattus norvegicus [2]
  Activity: 50%
Rattus norvegicus [3]
  Activity: 69%
Rattus norvegicus [4]
  ED50: inactive

## O=c1[nH]c2ccccc2n1C1CCN(CCCC(c2ccc(F)cc2)c2ccc(F)cc2)CC1 [PIMOZIDE]
Rattus norvegicus [5]
  Activity: 7.3%
Rattus norvegicus [6]
  Activity: 416%
Rattus norvegicus [7]
  Activity: 101%
Rattus norvegicus [4]
  ED50: 1.6 µmol/kg

## Cc1nc2n(c(=O)c1CCN1CCC(c3noc4cc(F)ccc34)CC1)CCCC2 [RISPERIDONE]
Rattus norvegicus [8]
  Activity: 347%
Rattus norvegicus [9]
  Activity: 115%
Rattus norvegicus [10]
  Activity: 11%
Rattus norvegicus [4]
  ED50: 0.5 µmol/kg

## CCCN1CCC(n2c(=O)[nH]c3cc(Cl)ccc32)CC1
Rattus norvegicus [11]
  inhibition (INH): 4%
[12]
  Ki: 3.51 µM
Rattus norvegicus [13]
  Activity: 101%
Homo sapiens
  Ratio Ki(app): 0.8
D(3) dopamine receptor
  Ki: 2.52 µM
[14]
  Ki: 21.6 µM
[15]
  Ki: 5.71 µM
D(2) dopamine receptor [16]
  Ki: 0.456 µM
D(2) dopamine receptor [17]
  Ki: 0.371 µM
Rattus norvegicus [18]
  inhibition (INH): 42%
Rattus norvegicus [19]
  Activity: 334%
[20]
  inhibition: 17%
[21]
  Ki: 17.2 µM
Rattus norvegicus [4]
  ED50: 7 µmol/kg
Rattus norvegicus [22]
  Activity: 54%
[23]
  inhibition: 15%
[24]
  IC50: > 580 µM
[25]
  IC50: > 580 µM

## O=C1Cc2cc(CCN3CCN(c4nsc5ccccc45)CC3)c(Cl)cc2N1 [ZIPRASIDONE]
Rattus norvegicus [26]
  Activity: 98%
Rattus norvegicus [27]
  Activity: 311%
Rattus norvegicus [4]
  ED50: 1.2 µmol/kg
Rattus norvegicus [28]
  Activity: 13%

## O=C(NCCN1CCOCC1)c1ccc(Cl)cc1 [MOCLOBEMIDE]
Rattus norvegicus [29]
  Activity: 164%
Rattus norvegicus [30]
  Activity: 18%
Rattus norvegicus [31]
  Activity: 81%
